US20230352149A1, “Single-cell morphology analysis for disease profiling and drug discovery” (Universität Heidelberg, priority 2020, published 2023)

Tested on: cardiomyocytes
Assay: live cell imaging of changes in cell areas after stimulation (FIG. 17A)
Type: cell-based
Settings: for changes in cell areas vs Ctrl: after 9 h, Ctrl vs PE/Ins; for early dynamics of cell area: early dynamics (<2.5 h), compared with ctrl (no increase)
Description: Image acquisition can be performed with a microscope. Preferably, this is performed at the end of the experiment. In other embodiments, the image acquisition is performed during the course of the experiment to analyze the cell response over time (video, live cell imaging).
In order to perform time series analysis, imaging of cells can happen multiple times with live cell fluorescent dyes. This allows visualizing the dynamics of cell morphological changes over time. Experiments have shown that certain dynamics leads to a characteristic set of meta-features associated with certain diagnoses, prognoses, and/or individualized therapy.

Row | Compound | changes in cell areas vs Ctrl | early dynamics of cell area
1 | CNC[C@H](O)c1cccc(O)c1 [PE, phenylephrine] | differences following stimulation can be observed | steep increase
2 | insulin | differences following stimulation can be observed | less steep increase
